Reference: patent publication US10413559B2, “Method for treating demyelinating disease” (OCHANOMIZU UNIVERSITY, priority 2013, dated 2019)

Assays:
[1] = system: demyelination model mice (0.2% cuprizone); test: Myelin level by Black Gold staining in cuprizone demyelination model mice (Example 1); format: in vivo, C57BL/6 mice; details: intraperitoneal 40 μg/200 μl saline/day for 5 weeks, FIG. 2
Procedure: 10-week-old male C57BL/6 mice were fed with a mash feed containing 0.2% cuprizone for five weeks until the most significant demyelination occurred, so as to produce demyelination model mice. cPA and carba-cPA (cPA) powders were each dissolved in a saline, and the obtained solutions were each administered intraperitoneally at a dose of 40 μg/200 μl saline/day to the mice every day for 5 weeks. On the other hand, to negative control mice, a saline (200 μl/day) was intraperitoneally administered in the same manner as described above. The mice, to which the test compound had been administered, were subjected to perfusion fixation with 4% paraformaldehyde, and sections to be used for frozen tissue staining (30 μm) were then prepared in a cryostat (FIG. 1). The level of myelin in each mouse was measured by Black Gold staining, and the demyelination level was then measured based on the stained level (FIG. 2).

DNA polymerase α = molecular target: T1, DNA polymerase α (Homo sapiens, UniProt P09884); details: Murakami-Murofushi et al. 1992; cited from earlier work
T1 sequence (P09884 1-1462): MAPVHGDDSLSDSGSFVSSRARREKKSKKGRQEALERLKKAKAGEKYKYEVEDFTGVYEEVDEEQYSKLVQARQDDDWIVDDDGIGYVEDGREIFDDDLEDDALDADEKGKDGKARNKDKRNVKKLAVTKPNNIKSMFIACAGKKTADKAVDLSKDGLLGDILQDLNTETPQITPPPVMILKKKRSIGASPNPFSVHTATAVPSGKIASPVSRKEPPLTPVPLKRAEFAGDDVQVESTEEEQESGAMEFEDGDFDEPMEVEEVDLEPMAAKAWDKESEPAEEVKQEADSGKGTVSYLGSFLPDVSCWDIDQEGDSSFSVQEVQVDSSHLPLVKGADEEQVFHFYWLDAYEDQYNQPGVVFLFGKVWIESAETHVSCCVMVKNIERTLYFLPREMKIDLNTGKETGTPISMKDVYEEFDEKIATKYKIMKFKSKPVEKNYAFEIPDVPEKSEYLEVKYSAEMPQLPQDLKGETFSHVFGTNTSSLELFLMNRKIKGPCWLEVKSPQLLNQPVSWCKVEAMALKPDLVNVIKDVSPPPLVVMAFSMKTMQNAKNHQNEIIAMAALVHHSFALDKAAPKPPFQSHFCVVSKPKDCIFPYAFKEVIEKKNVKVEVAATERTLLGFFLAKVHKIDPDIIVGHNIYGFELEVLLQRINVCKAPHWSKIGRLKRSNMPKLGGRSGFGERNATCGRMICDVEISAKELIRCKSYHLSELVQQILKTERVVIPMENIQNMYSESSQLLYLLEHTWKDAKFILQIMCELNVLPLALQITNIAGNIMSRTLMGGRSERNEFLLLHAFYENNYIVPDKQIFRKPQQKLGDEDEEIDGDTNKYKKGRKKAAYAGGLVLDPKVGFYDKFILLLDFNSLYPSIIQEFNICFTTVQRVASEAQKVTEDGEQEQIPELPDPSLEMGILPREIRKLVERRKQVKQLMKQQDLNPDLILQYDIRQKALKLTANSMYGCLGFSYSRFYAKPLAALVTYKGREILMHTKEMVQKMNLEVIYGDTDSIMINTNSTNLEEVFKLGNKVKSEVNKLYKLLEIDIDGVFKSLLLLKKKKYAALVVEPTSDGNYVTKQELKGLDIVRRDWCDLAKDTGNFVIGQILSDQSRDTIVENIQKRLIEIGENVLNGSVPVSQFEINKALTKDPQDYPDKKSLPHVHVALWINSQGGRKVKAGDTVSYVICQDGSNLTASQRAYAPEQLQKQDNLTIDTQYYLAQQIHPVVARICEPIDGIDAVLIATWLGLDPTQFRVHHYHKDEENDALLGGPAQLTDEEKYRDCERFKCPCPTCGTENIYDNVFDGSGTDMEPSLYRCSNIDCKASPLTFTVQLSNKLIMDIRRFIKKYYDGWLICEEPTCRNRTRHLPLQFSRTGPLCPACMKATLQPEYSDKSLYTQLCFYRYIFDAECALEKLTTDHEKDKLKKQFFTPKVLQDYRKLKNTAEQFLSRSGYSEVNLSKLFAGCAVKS

cultured animal cells = details: Murakami-Murofushi et al. 1992; cited from earlier work
[2] = system: demyelination model mice (0.2% cuprizone), corpus callosum; test: Histological staining (Black Gold II) of corpus callosum and evaluation of demyelination (Example 2); format: in vivo, C57BL/6j mice; details: intraperitoneal 1.6 mg/kg/day for 5 weeks, FIG. 3, FIG. 4
Excerpt: 10-week-old male C57BL/6j mice (Tokyo Laboratory Animals Science Co., Ltd., Tokyo, Japan) were fed by the discretionary intake of a mash feed (CLEA Japan, Inc.) that contained 0.2% cuprizone (biscyclohexanone oxalyl hydrazone; Merck KGaA, Darmstadt, Germany) for 5 weeks until demyelination progressed most, so as to produce demyelination model mice involving demyelination caused by oligodendrocyte-specific cell death. To obtain tissues to be used for histological analysis, a mouse was subjected to perfusion fixation through the heart with 4% paraformaldehyde, and the resulting brain tissues were then excised from the mouse. Thereafter, the tissues were immobilized and infiltrated with 30% sucrose. Thereafter, a frozen tissue block was prepared and was then sliced in a cryostat. The cPA used in the experiment was the same cPA (16:0) as that used in Example 1, and the carba-cPA was 2 ccPA (16:1). The cPA and 2 ccPA were chemically purified (Biochimica et Biophysica Acta, Emi Nozaki 2011), and were then dissolved in a 0.9% saline. […] For the analysis of the level of myelin, using Image J 1.46r software, the stained level in the corpus callosum area was measured, and the demyelination level was then evaluated, while setting the control as 100%.

[3] = system: GFAP, Iba1, PDGFRa, P2rx7, Nlrp3 gene expression in corpus callosum; test: Genetic analysis using Q-PCR of corpus callosum tissues; format: in vivo, C57BL/6j mice; details: cuprizone mice; intraperitoneal 1.6 mg/kg/day for 5 weeks; FIG. 6-8
Excerpt: 10-week-old male C57BL/6j mice (Tokyo Laboratory Animals Science Co., Ltd., Tokyo, Japan) were fed by the discretionary intake of a mash feed (CLEA Japan, Inc.) that contained 0.2% cuprizone (biscyclohexanone oxalyl hydrazone; Merck KGaA, Darmstadt, Germany) for 5 weeks until demyelination progressed most, so as to produce demyelination model mice involving demyelination caused by oligodendrocyte-specific cell death.
To obtain mouse corpus callosum tissues to be used for genetic analysis, mouse brain was removed, and the corpus callosum tissues were then collected from the brain. […]
mRNA was extracted from the frozen corpus callosum tissues using ISOGEN (Nippon Gene Co., Ltd., Tokyo, Japan), was then dissolved in RNase free molecular grade water (Takara Bio Inc., Shiga, Japan), and was then preserved at −80° C. […] Gene expression was detected using 7900 Sequence Detection System (Applied Biosystems). […] The gene expression level was calculated by a ΔΔCT method. Data were analyzed by a relative quantification method. A relative change in the gene expression was analyzed, while setting the gene expression level in a control mouse at 100%.

[4] = system: demyelination model mice (0.2% cuprizone); test: Test of motor function impairment using rotarod; format: in vivo, C57BL/6j mice; details: intraperitoneal 1.6 mg/kg/day for 5 weeks, 28 rpm, 300 seconds, FIG. 9, FIG. 10
Excerpt: 10-week-old male C57BL/6j mice (Tokyo Laboratory Animals Science Co., Ltd., Tokyo, Japan) were fed by the discretionary intake of a mash feed (CLEA Japan, Inc.) that contained 0.2% cuprizone (biscyclohexanone oxalyl hydrazone; Merck KGaA, Darmstadt, Germany) for 5 weeks until demyelination progressed most, so as to produce demyelination model mice involving demyelination caused by oligodendrocyte-specific cell death. The cPA used in the experiment was the same cPA (16:0) as that used in Example 1, and the carba-cPA was 2 ccPA (16:1). The cPA and 2 ccPA were chemically purified (Biochimica et Biophysica Acta, Emi Nozaki 2011), and were then dissolved in a 0.9% saline. […] The locomotion time on the rod was evaluated by measuring the time required for the mice to fall from the rotating rod within a record time of 300 seconds. Moreover, even after the mice had fallen from the rod, they were forced to continue their activity immediately after the falling, so that a total number of the activities from falling from the rod to holding on to the rod for 300 seconds (a number of falls and flips) was measured and evaluated. The data of the test of motor function impairment were analyzed according to a non-parametric method using a Kruskal-Wallis test. All of other data were analyzed according to a one-way ANOVA method using a Newman-Keulis test. […]

Structure (SMILES) | level of myelin (Black Gold staining) versus control mouse [1] | activity of DNA polymerase α (DNA polymerase α) | proliferation of cultured animal cells (cultured animal cells) | demyelination level in corpus callosum (Black Gold II staining) [2] | nerve inflammation (gene expression by Q-PCR) [3] | motor function impairment (rotarod) [4]
CCCCCCCCC=CCCCCCCCC(=O)OCC1COP(=O)(O)C1 (stereo not shown) [2 ccPA (18:1), oleoyl 2-carba-cPA] | the same results as in the case of cPA (16:0) and 2 ccPA (16:1) were obtained | – | – | – | – | –
CCCCCC[C@@H]1C[C@@H]1CCCCCCCC(=O)OC[C@@H]1COP(=O)([O-])O1.[Na+] [PHYLPA] | – | suppressing the activity of DNA polymerase α | suppressing proliferation of cultured animal cells | – | – | –
CCCCCC/C=C\CCCCCCCC(=O)OCC1COP(=O)(O)C1 (stereo not shown) [2 ccPA, palmitoleoyl 2-carba-cPA] | higher than the level of myelin in a control mouse | – | – | demyelination is suppressed | nerve inflammation is suppressed | motor function impairment is improved
